Where two headings read alike, the source gives them in different places. Values belong to the compound of their own block, whether it stands above or below them.
Experiments:
[1] = system: human colon carcinoma cells (HT29); test: HT29 human colon carcinoma s.c. tumor in Nude CD1 male mice; type: in vivo
Description: This example illustrates the effect of several compounds, including an exemplary compound of the present invention, on tumor volume. tumor weight and body weight in mice. Nude CD1 male mice were purchased from Harlan (Israel). Animals were housed under controlled conditions (temperature, humidity) and were given food and water ad libitum. After one week of acclimatization animals were inoculated s.c. with human colon carcinoma cells (HT29) (2,000,000 cell/animals.). Therapy began 8 days after inoculation, at which time the animals were divided randomly into 4 groups (7-8 mice/group) and administered ip 3 times weekly for 4 weeks with the following compounds: […] Body weight and tumor volume were measured weekly. Tumor volume is defined as (shortest diameter)^2×(longest diameter)×0.5. At the end of the treatment, animals were sacrificed and tumors and organs collected and weighed.

[2] = system: human colon carcinoma cells (HT29)
[3] = system: c-jun and p-c-jun expression in HaCat cells; test: Western blot of c-jun and p-c-jun expression in HaCat cells; type: cell-based, human; conditions: 15 μM, 1 hr
Description: For each sample 2×10^7 cells were used. The cells were lysed, and equal amounts of protein was fractionated on polyacrylamide gel and then transferred to PVDF membrane. The amount of the protein was detected by immuno-blotting with monoclonal anti-c-Jun or p-c-Jun antibodies (Cayman, Ann Arbor, Mich., USA). A second antibody conjugated to horseradish peroxidase was used and visualized with chemiluminescent Kit (Pierce, Rockford, Ill., USA) on film. […] Activation of the […] pathway produces p-c-Jun as a major end, while initiating apoptosis in certain cell-lines.

[4] = system: human colon carcinoma cells (HT29); test: cells; conditions: HT-29, read-out: cell viability
[5] = system: Caspase 3 activity of LS1034 human colon MDR carcinoma cells; test: Caspase-3 activity in LS1034 human colon MDR carcinoma cells; type: cell-based; conditions: 10 or 20 μM, 4 hr after exposure
Procedure: Caspase 3 activity was measured by an enzymatic fluorimetric method using a fluorigenic substrate (Ac-DEVD-AMC), which produces blue fluorescence detected at 360 nm wavelength. […] When AMC is cleaved from the substrate by caspase-3, and caspase-3-like enzymes, it produces a yellow-green fluorescence, which can be monitored by a fluorimeter at 460 nm. The amount of yellow green fluorescence is proportional to the activity of caspase-3 in the cell extract sample.
Whole cell lysate was added to a buffer containing 100 μM peptide substrate, 100 mM HEPES, 10% glycerol, 1 mM EDTA and 10 mM dithiothreitol. Measurements were taken every 5 min for 80 min. These experiments were also monitored in the presence of a specific caspase-3 inhibitor, DEVD-AMC-CHO, which was added after 45 or 60 min to the reaction mixture, to ascertain the specificity of the enzyme.

human tumor cell lines = test: In vitro antitumor activity in panel of 37 human tumor cell lines (Monolayer Assay, PI), summary; type: cell-based; conditions: mean over human cancer cell-lines
human glioma U87 cells = test: Viability of human glioma U87 cell-line; type: cell-based; conditions: FIG. 9
[6] = system: CEM/C1 human leukemia cells; test: Cell proliferation of CEM/C1 human leukemia cells, 3H thymidine incorporation; type: cell-based; conditions: for inhibition at 10 µM: Homo sapiens, 3H thymidine incorporation; for effect on cell proliferation: already evident at 1 μM; for cell proliferation: 1 μM, 3H thymidine incorporation 24 hours
Procedure: […] Cells, 10,000/well, were harvested and the incorporated radioactivity was determined by liquid scintillation in a beta counter.

[7] = system: CEM/C1 cell-lines (camptothecin resistant human T-cell leukemia); test: Viability of CEM/C1 cell-line, alamar blue; type: cell-based; conditions: 1-30 μM
Description: This cell-line is a camptothecin (CPT) resistant derivative of the human T-cell leukemia purchased from ATCC (USA). […] The results are depicted in FIG. 14. Each point represents the mean+/−SEM of 4 determinations.

[8] = system: human Jurkat lymphoma cells; test: Viability of human Jurkat lymphoma cells, alamar blue staining; type: cell-based; conditions: for IC50: Homo sapiens, 48 hr, alamar blue
Procedure: This example illustrates cell viability data derived from the incubation of a human. […] The results are depicted in FIGS. 1A, 1B, and 1C. […] See Nociari et al., J. Immunol. […] Each point represents the mean+/−SE of 4 determinations.

[9] = system: Con-A activated naive mouse splenocytes; test: Con-A-induced mouse splenocyte proliferation, alamar blue staining; type: cell-based
Description: This example illustrates cell viability data obtained by separately administering different concentrations of compound (Ia), paroxetine, citalopram, and ecitalopram to Con-A activated naive mouse splenocytes. FIG. 3A depicts the comparative effect of compound (Ia), paroxetine, citalopram and ecitalopram on Con-A-induced mouse splenocyte proliferation using alamar blue staining after 48 hr. Each point represents the mean+/−SE of 5 determinations.

[10] = system: human keratinocytes (HaCat cells); test: Viability of human keratinocytes (HaCat cells), neutral red staining; type: cell-based; conditions: 24 hr, read-out: IC50, cell viability
[11] = system: human Jurkat lymphoma cells; test: Viability of human Jurkat lymphoma cells, dexamethasone alone and in combination; type: cell-based; conditions: Homo sapiens, 20 μM alone, FIG. 13B, read-out: inhibition of cell viability
Jurkat Lymphoma cells = test: Viability of Jurkat Lymphoma cells, combination with Doxorubicin; type: cell-based; conditions: Homo sapiens, Doxorubicin 20 μM alone, read-out: inhibition of cell viability
[12] = FIG. 1C, read-out: IC50, inhibition of cell viability

SMILES: O=c1[nH]cc(F)c(=O)[nH]1 [5 FU, fluorouracil, reference compound]
- tumor volume ([1]; HT29 tumor in nude mice, ip 3 times weekly, after 3 and 4 weeks of therapy, FIG. 16): significantly decreased compared to the control groups

- histopathological assessment of spleen, liver and kidney ([1]; end of treatment): change in capsule fibrosis at random
SMILES: CN[C@H]1CC[C@@H](c2ccc(Cl)c(Cl)c2)c2ccccc21 [sertraline]
- potency compared with paroxetine ([2]; 10-30 μM, FIG. 2A): higher potency than paroxetine
- potency compared with paroxetine and fluoxetine ([2]; equimolar doses, FIG. 2B): significantly more potent than paroxetine and fluoxetine
- decrease in body weight ([1]; compared to 5 FU or controls, FIG. 18): 10%
- effect on c-Jun / p-c-Jun (MAPK pathway) [3]: activation of the c-Jun-N-terminal kinase (JNK) pathway
- viability at 30 µM [4]: 60.3%
- caspase-3 activity [5]: dose dependent increase in the activity of caspase-3
- mean IC70 (human tumor cell lines): 13 µM
- effect on cell viability (human glioma U87 cells): inhibit this glioma cell-line in a dose dependant fashion
- efficacy compared with paroxetine (human glioma U87 cells): higher efficacy than paroxetine

- IC50 [7]: 13.5 µM
- IC50 ([8]; FIG. 1B, read-out: IC50, decrease in cell viability): 17 µM
SMILES: CN[C@H]1CC[C@@H](c2ccc(Cl)c(Cl)c2)c2ccc(C#CCCCOC)cc21.Cl [compound (Ic), (1S-cis)-4-(3,4-dichlorophenyl)-7-(5-methoxy-1-pentyn-1-yl)-1,2,3,4-tetrahydro-N-methyl-1-naphthalenamine hydrochloride]
- inhibition at 10 µM [6]: ~95%
- effect on cell proliferation [6]: dose dependent decrease in cell proliferation
- potency compared with sertraline ([8]; lower concentrations (1-10 μM), FIG. 1B): higher potency than sertraline

- IC50 [7]: 12.3 µM
- IC50 ([8]; FIG. 1A, read-out: IC50, anti-proliferative activity): 37.7 µM
- IC50 [8, 12]: 37.6 µM
SMILES: Fc1ccc([C@@H]2CCNC[C@H]2COc2ccc3c(c2)OCO3)cc1 [paroxetine, reference compound]
- IC50 ([9]; Splenocyte, 48 hr, alamar blue, read-out: IC50, inhibition in cell viability): 11.9 µM
- IC50 [10]: 16 µM
- viability at 30 µM [4]: 74%
- caspase-3 activity [5]: dose dependent increase in the activity of caspase-3
- effect on cell viability (human glioma U87 cells): inhibit this glioma cell-line in a dose dependant fashion

SMILES: C[C@@H]1C[C@H]2[C@@H]3CCC4=CC(=O)C=C[C@]4(C)[C@@]3(F)[C@@H](O)C[C@]2(C)[C@@]1(O)C(=O)CO [dexamethasone, reference compound]
- cytotoxicity at 20 µM [11]: 8%

SMILES: OCCCC#Cc1cc2c(cc1OC[C@@H]1CNCC[C@H]1c1ccc(F)cc1)OCO2 [compound (Ib), (3S-trans)-3-((6-(5-hydroxy-1-pentyn-1-yl)-1,3-benzodioxol-5-yloxy)methyl)-4-(4-fluorophenyl)-piperidine]
- effect compared to sertraline and paroxetine [6]: significantly higher effects compared to sertraline and paroxetine
- cell proliferation [6]: 43.6 % of controls
- effect on cell proliferation [6]: dose dependent decrease in cell proliferation
- IC50 [7]: 7.6 µM
- IC50 [8, 12]: 19.5 µM
- potency compared with paroxetine ([8]; concentrations higher than 5 μM, FIG. 1C): higher potency than paroxetine

SMILES: COc1cccc2c1C(=O)c1c(O)c3c(c(O)c1C2=O)C[C@@](O)(C(=O)CO)C[C@@H]3O[C@H]1C[C@H](N)[C@H](O)[C@H](C)O1 [doxorubicin, reference compound]
- effect on cell viability compared with the antidepressants and compound (Ia) ([2]; 10 and 20 μM, FIG. 2A): more pronounced than that produced by the antidepressants and compound (Ia)
- cell proliferation [6]: 65.7 % of controls
- inhibition at 10 µM [6]: ~95%
- viability at 30 µM [4]: 57.7%
- cytotoxicity at 20 µM (Jurkat Lymphoma cells): 54%

SMILES: CN(C)CCC[C@@]1(c2ccc(F)cc2)OCc2cc(C#N)ccc21 [ecitalopram, reference compound]
- effect on cell-viability ([9]; up to 30 μM): no effect on cell-viability
- effect on cell viability ([8]; low concentrations (2.5 and 5.0 μM), FIG. 1A): slight decrease in cell-viability

Reference: US20100279990A1, “ANTIPROLIFERATIVE COMPOUNDS, COMPOSITIONS AND METHODS OF USE” (RAMOT AT TEL-AVIV UNIVERSITY LTD., priority 2006, published 2010)
